Results taken from patent US8518889B2, “Method of treating cancer with antibodies against long-form leukotriene B4 receptor BLT2” (Korea University Research & Business Foundation, priority 2007, dated 2013).

Experiments:
MCF-7 cells = settings: LY255283 10 μM, epirubicin 100 ng/ml
[1] = system: human pancreatic cancer cells; settings: cited from earlier work

## COc1cccc2c1C(=O)c1c(O)c3c(c(O)c1C2=O)C[C@@](O)(C(=O)CO)C[C@@H]3O[C@H]1C[C@H](N)[C@@H](O)[C@H](C)O1 [Epirubicin]
MCF-7 cells
  DNA fragmentation / cell death: only tiny increase in cell death

## CCCc1c(OCCCOc2cc(O)c(-c3ccc(F)cc3)cc2CC)cccc1Oc1ccccc1C(=O)O [LY293111]
[1]
  growth and apoptosis of human pancreatic cancer cells: inhibited the growth of and induced apoptosis of
